ChEMBL document CHEMBL1909046, “DrugMatrix in vitro pharmacology data”
Where a SMILES comes first, the peptide text is derived from it. Bridges are numbered along the chain shown (N, C = ends). [ ]: non-standard residue; d: D form. The star is where a group is joined. Threoninol(2S,3R) = C[C@@H](O)[C@H](CO)N*

Tests used:
[1] = DRUGMATRIX: Calcium Channel Type L, Phenylalkylamine radioligand binding (ligand: [3H] (-)-Desmethoxyverapamil (D-888)); format: cell membranes, Rattus norvegicus, Wistar, Brain, Membrane; details: Not Active = under 50% inhibition at 10 µM
Histamine H2 receptor = Histamine H2 receptor (Homo sapiens, UniProt P25021); format: cell membranes, CHO-K1, Membrane; details: cho-k1; note: in other assays of this panel Not Active means under 50% inhibition at 10 µM
Sequence of Histamine H2 receptor (P25021 whole entry): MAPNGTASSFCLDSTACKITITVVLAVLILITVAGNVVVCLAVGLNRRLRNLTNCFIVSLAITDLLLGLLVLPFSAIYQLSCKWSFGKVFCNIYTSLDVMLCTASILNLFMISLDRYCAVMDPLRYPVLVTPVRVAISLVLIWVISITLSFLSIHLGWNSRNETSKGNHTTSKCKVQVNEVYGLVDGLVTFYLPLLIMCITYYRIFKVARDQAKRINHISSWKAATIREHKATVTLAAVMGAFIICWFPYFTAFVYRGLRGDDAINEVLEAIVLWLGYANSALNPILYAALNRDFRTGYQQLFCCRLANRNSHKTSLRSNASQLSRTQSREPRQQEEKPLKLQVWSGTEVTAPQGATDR

Adenosine receptor A3 = target: T1, Adenosine receptor A3 (Homo sapiens, UniProt P0DMS8); format: cell membranes, CHO-K1, Membrane;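 note: radioligand binding assay with AB-MECA serving as the labeled ligand; in other assays of this panel Not Active means under 50% inhibition at 10 µM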
T1 sequence (P0DMS8 whole entry): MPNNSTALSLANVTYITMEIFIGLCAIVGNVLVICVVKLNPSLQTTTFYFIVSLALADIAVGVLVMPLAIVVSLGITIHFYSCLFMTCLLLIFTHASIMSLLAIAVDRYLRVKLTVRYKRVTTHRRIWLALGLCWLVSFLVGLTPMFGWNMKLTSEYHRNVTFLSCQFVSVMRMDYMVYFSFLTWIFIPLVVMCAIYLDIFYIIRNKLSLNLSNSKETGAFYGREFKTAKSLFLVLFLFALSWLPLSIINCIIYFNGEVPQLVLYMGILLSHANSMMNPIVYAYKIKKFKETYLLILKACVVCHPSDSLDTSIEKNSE

Interstitial collagenase = target: T2, Interstitial collagenase (Homo sapiens, UniProt P03956); assay: biochemical; format: tissue-based, Rheumatoid synovial fibroblasts;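 note: MMP-1 enzyme inhibition assay using a peptide substrate; in other assays of this panel Not Active means under 50% inhibition at 10 µM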
T2 sequence (P03956 whole entry): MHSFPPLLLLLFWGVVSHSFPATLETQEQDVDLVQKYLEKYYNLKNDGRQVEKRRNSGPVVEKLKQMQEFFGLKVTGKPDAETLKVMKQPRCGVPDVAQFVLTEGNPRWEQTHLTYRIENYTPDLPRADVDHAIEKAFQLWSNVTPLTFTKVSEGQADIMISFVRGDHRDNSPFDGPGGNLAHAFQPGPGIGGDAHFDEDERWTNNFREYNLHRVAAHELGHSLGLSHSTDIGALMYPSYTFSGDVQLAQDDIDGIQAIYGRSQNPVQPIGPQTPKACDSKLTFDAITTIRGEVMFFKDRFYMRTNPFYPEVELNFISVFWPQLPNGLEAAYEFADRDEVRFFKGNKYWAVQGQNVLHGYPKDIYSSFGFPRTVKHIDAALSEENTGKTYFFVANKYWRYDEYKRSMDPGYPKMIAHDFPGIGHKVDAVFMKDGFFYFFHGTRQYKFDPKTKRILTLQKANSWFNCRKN

D(3) dopamine receptor = D(3) dopamine receptor (Homo sapiens, UniProt P35462); assay: DRUGMATRIX: Dopamine D3 radioligand binding (ligand: [3H] Spiperone); format: cell membranes, CHO, Membrane; details: cho
Sequence of D(3) dopamine receptor (P35462 whole entry): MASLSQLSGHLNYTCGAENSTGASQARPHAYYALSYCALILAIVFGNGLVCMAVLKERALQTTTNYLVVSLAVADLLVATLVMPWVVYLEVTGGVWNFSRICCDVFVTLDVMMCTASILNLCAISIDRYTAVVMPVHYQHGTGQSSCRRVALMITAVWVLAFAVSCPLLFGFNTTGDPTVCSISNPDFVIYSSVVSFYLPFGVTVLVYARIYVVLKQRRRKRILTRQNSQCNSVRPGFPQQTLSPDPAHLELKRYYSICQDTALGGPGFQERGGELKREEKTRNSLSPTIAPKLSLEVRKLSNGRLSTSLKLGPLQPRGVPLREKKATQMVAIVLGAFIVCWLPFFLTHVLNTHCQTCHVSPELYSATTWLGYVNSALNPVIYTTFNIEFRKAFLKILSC

Row | Compound | IC50 [1] | Ki [1] | IC50 (Histamine H2 receptor) | IC50 (Adenosine receptor A3; cho-k1) | IC50 (Interstitial collagenase) | IC50 (D(3) dopamine receptor) | IC50 (Adenosine receptor A3; read-out: IC50) [µM] | Ki (Adenosine receptor A3; read-out: Ki) [µM] | Ki (Histamine H2 receptor) | Ki (Adenosine receptor A3; cho-k1) | Ki (Interstitial collagenase) | Ki (D(3) dopamine receptor)
1 | COc1ccccc1C(=O)N1CCC(Cc2ccccc2)CC1 | Not Active | Not Active | Not Active | Not Active | Not Active | Not Active |  |  |  |  |  | 
2 | Cc1ccccc1C(=O)N1CCC(Cc2ccccc2)CC1 | Not Active | Not Active | Not Active | Not Active | Not Active | Not Active |  |  |  |  |  | 
3 | O=C1CC[C@H](N2C(=O)c3ccccc3C2=O)C(=O)N1 | Not Active | Not Active | Not Active | Not Active | Not Active | Not Active |  |  |  |  |  | 
4 | N=C(Nc1ccccc1)Nc1ccccc1 | Not Active | Not Active | Not Active | Not Active | Not Active | Not Active |  |  |  |  |  | 
5 | C[C@@H](O)[C@H](CO)NC(=O)[C@@H]1CSSC[C@H](NC(=O)[C@H](N)Cc2ccccc2)C(=O)N[C@@H](Cc2ccccc2)C(=O)N[C@H](Cc2c[nH]c3ccccc23)C(=O)N[C@@H](CCCCN)C(=O)N[C@@H]([C@@H](C)O)C(=O)N1 (H-[dF]CF[dW]KTC-{Threoninol(2S,3R)}; disulfide 2-7) | Not Active | Not Active | Not Active | Not Active | Not Active | Not Active |  |  |  |  |  | 
6 | S=C=Nc1cccc2ccccc12 [1-NAPHTHYLISOTHIOCYANATE] | Not Active | Not Active | Not Active |  | Not Active | Not Active | 6.1 | 3.45 |  |  |  | 
7 | C[C@](O)(CS(=O)(=O)c1ccc(F)cc1)C(=O)Nc1ccc(C#N)c(C(F)(F)F)c1 [(R)-BICALUTAMIDE] | Not Active | Not Active | Not Active | Not Active | Not Active | Not Active |  |  |  |  |  | 
8 | CCCC(=O)Nc1ccc(OCC(O)CNC(C)C)c(C(C)=O)c1 (configuration not stated) [ACEBUTOLOL] | Not Active | Not Active | Not Active | Not Active | Not Active | Not Active |  |  |  |  |  | 
9 | CC(=O)Nc1ccc(O)cc1 [ACETAMINOPHEN] | Not Active | Not Active | Not Active | Not Active | Not Active | Not Active |  |  |  |  |  | 
10 | COc1cc2c(c3oc(=O)c4c(c13)CCC4=O)[C@@H]1C=CO[C@@H]1O2 [AFLATOXIN] | Not Active | Not Active | Not Active | Not Active | Not Active | Not Active |  |  | Not Active | Not Active | Not Active | Not Active
11 | N=C(N)NC(=O)c1nc(Cl)c(N)nc1N [AMILORIDE] | Not Active | Not Active | Not Active | Not Active | Not Active | Not Active |  |  |  |  |  | 
12 | Cc1cc(=O)n(-c2ccccc2)n1C [ANTIPYRINE] | Not Active | Not Active | Not Active | Not Active | Not Active | Not Active |  |  |  |  |  | 
13 | CN1C(=O)COc2c(C(=O)NC3CN4CCC3CC4)cc(Cl)cc21 (configuration not stated) [AZASETRON] | Not Active | Not Active | Not Active | Not Active | Not Active | Not Active |  |  |  |  |  | 
14 | C[C@H]1C[C@H]2[C@@H]3CCC4=CC(=O)C=C[C@]4(C)[C@@]3(Cl)[C@@H](O)C[C@]2(C)[C@@]1(O)C(=O)CO [BECLOMETHASONE] | Not Active | Not Active | Not Active | Not Active | Not Active | Not Active |  |  |  |  |  | 
15 | CCOC(=O)[C@H](CCc1ccccc1)N[C@H]1CCc2ccccc2N(CC(=O)O)C1=O [BENAZEPRIL] | Not Active | Not Active | Not Active | Not Active | Not Active | Not Active |  |  |  |  |  | 
16 | Nc1c(CC(=O)O)cccc1C(=O)c1ccc(Br)cc1 [BROMFENAC] | Not Active | Not Active | Not Active | Not Active | Not Active | Not Active |  |  |  |  |  | 
17 | CCCCN1CCCCC1C(=O)Nc1c(C)cccc1C.Cl (configuration not stated) [BUPIVACAINE HYDROCHLORIDE] | Not Active | Not Active | Not Active | Not Active | Not Active | Not Active |  |  |  |  |  | 
